Measurements: patent publication US20200230084A1 (Strongbridge Dublin Limited, priority 2019, published 2020)
“Also recorded” adds a separate entry of the source.

What was measured:
[1] = system: patients with primary periodic paralysis; assay: Phase III double-blind plus open-label extension study: cognition-related adverse events during dichlorphenamide treatment; format: in vivo, human
Method: Data were analyzed from a 9-week Phase III, randomized, double-blind, placebo-controlled phase and a 52-week open-label extension phase. The trial included two substudies: one in adults with hyperkalemic periodic paralysis and one in adults with hypokalemic periodic paralysis. The substudy data were pooled. Medical Dictionary for Regulatory Activities high-level group terms of deliria (including confusion) and mental impairment disorders were pooled for cognition-related events. Kaplan-Meier methods were used to estimate the percentages of patients with no occurrence of the adverse event over time.
Dose reductions were allowed for intolerable adverse events. […] Adverse events reported during dichlorphenamide exposure were summarized by double-blind treatment/open label treatment (placebo/dichlorphenamide or dichlorphenamide/dichlorphenamide) group.
The age range was 19 to 76 years.

[2] = cited from earlier work
[3] = cited from earlier work; remark: listed apart in the source
[4] = n = 63, cognition-related adverse events
[5] = n = 63, considered by investigators at least possibly related to study drug
[6] = n = 63, listed as dichlorphenamide

**Q.** With `NS(=O)(=O)c1cc(Cl)c(Cl)c(S(N)(=O)=O)c1` [Dichlorphenamide, 4,5-dichloro-1,3-benzenedisulfonamide] as the molecule, how does the “Intensity of cognition-related adverse events (in words)” value ([1]; 61-week study) read?
**A.** Most cognition-related adverse events were mild in intensity; also recorded: mild or moderate in intensity

**Q.** What about the “Discontinuation due to cognition-related adverse event, patients %” value ([1]; n = 63) of the same molecule?
**A.** (6.3) %

**Q.** And the “Discontinuation due to cognition-related adverse event, patients n” value ([1]; n = 63)?
**A.** 4 patients

**Q.** What about the “Resolution of last cognition-related adverse event: Resolved, patients %” value ([1]; n = 63) of the same molecule?
**A.** (17.5) %

**Q.** And the “Resolution of last cognition-related adverse event: Resolved, patients n” value ([1]; n = 63)?
**A.** 11 patients

**Q.** What about the “Resolution of last cognition-related adverse event: Under treatment/observation, patients %” value ([1]; n = 63) of the same molecule?
**A.** (7.9) %

**Q.** What about the “Resolution of last cognition-related adverse event: Under treatment/observation, patients n” value ([1]; n = 63) of the same molecule?
**A.** 5 patients

**Q.** And the “Any cognition-related adverse event, patients %” value ([1]; n = 63, 61-week study duration)?
**A.** (25.4) %

**Q.** And the “Any cognition-related adverse event, patients n” value ([1]; n = 63, 61-week study duration, pooled hyper/hypokalemic periodic paralysis)?
**A.** 16 patients

**Q.** What about the “Any cognition-related adverse event, patients %” value ([1]; n = 63, 61-week study duration, listed as dichlorphenamide) of the same molecule?
**A.** 25.4%

**Q.** What about the “Adverse event intensity: Mild, patients %” value [1, 4] of the same molecule?
**A.** (14.3) %

**Q.** And the “Adverse event intensity: Mild, patients n” value [1, 4]?
**A.** 9 patients

**Q.** What about the “Adverse event intensity: Moderate, patients %” value [1, 4] of the same molecule?
**A.** (7.9) %

**Q.** What about the “Adverse event intensity: Moderate, patients n” value [1, 4] of the same molecule?
**A.** 5 patients

**Q.** What about the “Adverse event intensity: Severe, patients %” value [1, 4] of the same molecule?
**A.** (3.2) %

**Q.** And the “Adverse event intensity: Severe, patients n” value [1, 4]?
**A.** 2 patients

**Q.** What about the “Any drug-related cognition-related adverse event, patients %” value [1, 5] of the same molecule?
**A.** (25.4) %

**Q.** And the “Any drug-related cognition-related adverse event, patients n” value [1, 5]?
**A.** 16 patients

**Q.** What about the “Discontinuation due to cognition-related adverse event, patients %” value [1, 6] of the same molecule?
**A.** 6.3%

**Q.** What about the “Discontinuation due to cognition-related adverse event, patients n” value [1, 6] of the same molecule?
**A.** Four

**Q.** And the “Patients with cognition-related adverse event who had the dose of dichlorphenamide reduced, %” value ([1]; of 16 patients with cognition-related adverse event)?
**A.** 37.5%

**Q.** What about the “Outcome of cognition-related adverse event after dose reduction” value ([1]; six patients with reduced dose) of the same molecule?
**A.** resolved in all six cases; also recorded: Reduced doses frequently resolved these adverse events

**Q.** What about the “Onset of cognition-related adverse events” value ([1]; time from start of dichlorphenamide treatment) of the same molecule?
**A.** during the first four weeks; also recorded: within the first month of therapy

**Q.** And the “Solubility in dilute solutions of sodium carbonate and sodium hydroxide” value ([2]; dilute sodium carbonate and sodium hydroxide solutions)?
**A.** soluble

**Q.** What about the Solubility in water ([2]; water) of the same molecule?
**A.** very slightly soluble

**Q.** And the “Stability of dilute alkaline solutions” value ([3]; room temperature)?
**A.** stable

**Q.** What about the Storage stability ([3]; storage) of the same molecule?
**A.** at least 36 months
